The source of these data is patent US11780893B2, “Kv1.3 blockers” (Zealand Pharma A/S, priority 2019, dated 2023).

Each structure is given as a SMILES string. Bridge positions count the residues as written; N and C are the ends. Square brackets hold non-standard residues; d marks the D form. Peptide text beside a SMILES is read from it. Nle = CCCC[C@H](N)C(=O)O

Broadly, the IC50 is the point on the concentration scale where inhibition reaches its midpoint.

The target of the assay is T1, human Kv1.3 voltage-gated K+ channel (Homo sapiens, UniProt P22001).
T1 construct: host or cells: CHO-DUKX
T1 sequence (P22001 whole entry): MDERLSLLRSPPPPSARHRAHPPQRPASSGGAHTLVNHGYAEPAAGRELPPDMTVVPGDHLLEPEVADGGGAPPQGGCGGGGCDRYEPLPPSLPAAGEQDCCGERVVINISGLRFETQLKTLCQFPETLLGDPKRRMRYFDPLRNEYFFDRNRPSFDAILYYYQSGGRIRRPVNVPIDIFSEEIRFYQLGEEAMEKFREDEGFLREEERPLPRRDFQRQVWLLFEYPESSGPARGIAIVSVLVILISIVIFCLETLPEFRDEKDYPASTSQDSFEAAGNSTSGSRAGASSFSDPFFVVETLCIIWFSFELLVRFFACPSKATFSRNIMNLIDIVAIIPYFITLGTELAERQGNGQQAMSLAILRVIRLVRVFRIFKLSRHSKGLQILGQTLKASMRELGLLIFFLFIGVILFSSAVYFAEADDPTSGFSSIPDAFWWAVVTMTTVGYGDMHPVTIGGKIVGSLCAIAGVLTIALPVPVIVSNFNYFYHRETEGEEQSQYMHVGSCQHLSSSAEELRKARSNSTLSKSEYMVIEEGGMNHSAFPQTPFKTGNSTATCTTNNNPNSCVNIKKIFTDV
Description: cell-based. As to conditions: inhibition of thallium flux, CHO-DUKX cells with human Kv1.3; read-out: IC50.
As to `CCCC[C@H](NC(=O)[C@@H]1CCCN1)C(=O)N[C@@H](CCC(=O)O)C(=O)N[C@@H](CCCC)C(=O)N[C@@H](CCCNC(=N)N)C(=O)N[C@H]1CSSC[C@@H]2NC(=O)[C@H](CCCCN)NC(=O)CNC(=O)[C@H](Cc3ccccc3)NC(=O)[C@H]([C@@H](C)CC)NC(=O)[C@H](CO)NC(=O)CNC(=O)[C@H]([C@@H](C)CC)NC(=O)[C@H](C)NC(=O)[C@H](C)NC(=O)[C@H](CC(C)C)NC(=O)[C@@H]3CSSC[C@@H](C(=O)N[C@@H](Cc4ccc(O)cc4)C(=O)N4CCC[C@H]4C(=O)N[C@@H](CCCNC(=N)N)C(=O)O)NC(=O)[C@H](CCCCN)NC(=O)[C@H](CSSC[C@H](NC(=O)[C@H](CCC(=O)O)NC(=O)[C@H](C(C)C)NC(=O)[C@H](CO)NC(=O)[C@H](C)NC(=O)[C@H](CO)NC1=O)C(=O)N[C@@H](CCCCN)C(=O)N[C@@H](CCC(N)=O)C(=O)N1CCC[C@H]1C(=O)N3)NC(=O)[C@H](CCCCN)NC(=O)[C@H](CCCCN)NC(=O)[C@H](CC(N)=O)NC(=O)[C@H](CCCC)NC2=O` [Compound 141] (H-P[Nle]E[Nle]RCSASVECKQPCLAAIGSIFGKC[Nle]NKKCKCYPR-OH; disulfide 6-27, 12-32, 16-34), the IC50 is 1.07 nM.
Under `CC[C@H](C)[C@@H]1NC(=O)[C@H](CCCCN)NC(=O)[C@H](CC(C)C)NC(=O)[C@@H]2CSSC[C@@H](C(=O)N[C@@H](Cc3ccc(O)cc3)C(=O)N3CCC[C@H]3C(=O)N[C@@H](CCCNC(=N)N)C(N)=O)NC(=O)[C@H](CCCCN)NC(=O)[C@@H]3CSSC[C@H](NC(=O)[C@H](CCC(=O)O)NC(=O)[C@H](C(C)C)NC(=O)[C@H](CO)NC(=O)[C@H](C)NC(=O)[C@H](CO)NC(=O)[C@@H](NC(=O)[C@H](CCCNC(=N)N)NC(=O)[C@H](CCSC)NC(=O)[C@H](CC(=O)O)NC(=O)[C@H](CCSC)NC(=O)[C@@H](N)CC(N)=O)CSSC[C@H](NC(=O)[C@H](CCCCN)NC(=O)CNC(=O)[C@H](Cc4ccccc4)NC(=O)[C@H]([C@@H](C)CC)NC(=O)[C@H](CO)NC(=O)CNC1=O)C(=O)N[C@@H](CCSC)C(=O)N[C@@H](CC(N)=O)C(=O)N[C@@H](CCCCN)C(=O)N[C@@H](CCCCN)C(=O)N3)C(=O)N[C@@H](CCCCN)C(=O)N[C@@H](CCC(N)=O)C(=O)N[C@@H](CCCCN)C(=O)N2` [Compound 57] (H-NMDMRCSASVECKQKCLKIGSIFGKCMNKKCKCYPR-NH2; disulfide 6-26, 12-31, 16-33) stands 0.11 nM; under `CC[C@H](C)[C@@H]1NC(=O)[C@H](CO)NC(=O)CNC(=O)[C@H](CCCNC(=N)N)NC(=O)[C@H](C)NC(=O)[C@H](CCCCN)NC(=O)[C@H](CC(C)C)NC(=O)[C@@H]2CSSC[C@@H](C(=O)N[C@@H](Cc3ccc(O)cc3)C(=O)N3CCC[C@H]3C(=O)N[C@@H](CCCNC(=N)N)C(N)=O)NC(=O)[C@H](CCCCN)NC(=O)[C@@H]3CSSC[C@H](NC(=O)[C@H](CCC(=O)O)NC(=O)[C@H](C(C)C)NC(=O)[C@H](CO)NC(=O)[C@H](C)NC(=O)[C@H](CO)NC(=O)[C@@H](NC(=O)[C@H](CCCNC(=N)N)NC(=O)[C@H](CCSC)NC(=O)[C@H](CC(=O)O)NC(=O)[C@H](CCSC)NC(=O)[C@@H](N)CC(N)=O)CSSC[C@H](NC(=O)[C@H](CCCCN)NC(=O)CNC(=O)[C@H](Cc4ccccc4)NC1=O)C(=O)N[C@@H](CCSC)C(=O)N[C@@H](CC(N)=O)C(=O)N[C@@H](CCCCN)C(=O)N[C@@H](CCCCN)C(=O)N3)C(=O)N[C@@H](CCCCN)C(=O)N[C@@H](CCC(N)=O)C(=O)N[C@@H](CCCCN)C(=O)N2` [Compound 60] (H-NMDMRCSASVECKQKCLKARGSIFGKCMNKKCKCYPR-NH2; disulfide 6-27, 12-32, 16-34), 0.035 nM.
Under `CCCC[C@H](NC(=O)[C@@H]1CCCN1)C(=O)N[C@@H](CCC(=O)O)C(=O)N[C@@H](CCCC)C(=O)N[C@@H](CCCNC(=N)N)C(=O)N[C@H]1CSSC[C@@H]2NC(=O)[C@H](CCCCN)NC(=O)CNC(=O)[C@H](Cc3ccccc3)NC(=O)[C@H]([C@@H](C)CC)NC(=O)[C@H](CO)NC(=O)CNC(=O)[C@H]([C@@H](C)CC)NC(=O)[C@H](C)NC(=O)[C@H](C)NC(=O)[C@H](CC(C)C)NC(=O)[C@@H]3CSSC[C@@H](C(=O)N[C@@H](Cc4ccc(O)cc4)C(=O)N[C@@H](CCCNC(=N)N)C(=O)O)NC(=O)[C@H](CCCCN)NC(=O)[C@H](CSSC[C@H](NC(=O)[C@H](CCC(=O)O)NC(=O)[C@H](C(C)C)NC(=O)[C@H](CO)NC(=O)[C@H](C)NC(=O)[C@H](CO)NC1=O)C(=O)N[C@@H](CCCCN)C(=O)N[C@@H](CCC(N)=O)C(=O)N[C@@H](CCCCN)C(=O)N3)NC(=O)[C@H](CCCCN)NC(=O)[C@H](CCCCN)NC(=O)[C@H](CC(N)=O)NC(=O)[C@H](CCCC)NC2=O` [Compound 120] (H-P[Nle]E[Nle]RCSASVECKQKCLAAIGSIFGKC[Nle]NKKCKCYR-OH; disulfide 6-27, 12-32, 16-34) stands 0.894 nM.
Next, `CCCC[C@H](NC(=O)[C@@H]1CCCN1)C(=O)N[C@@H](CCC(=O)O)C(=O)N[C@@H](CCCC)C(=O)N[C@@H](CCCNC(=N)N)C(=O)N[C@H]1CSSC[C@@H]2NC(=O)[C@H](CCCCN)NC(=O)CNC(=O)[C@H](Cc3ccccc3)NC(=O)[C@H]([C@@H](C)CC)NC(=O)[C@H](CO)NC(=O)CNC(=O)[C@H]([C@@H](C)CC)NC(=O)[C@H](C)NC(=O)[C@H](C)NC(=O)[C@H](CC(C)C)NC(=O)[C@@H]3CSSC[C@@H](C(=O)N[C@@H](Cc4ccc(O)cc4)C(=O)N4CCC[C@H]4C(=O)N[C@@H](CCCNC(=N)N)C(=O)O)NC(=O)[C@H](CCCCN)NC(=O)[C@H](CSSC[C@H](NC(=O)[C@H](CCC(=O)O)NC(=O)[C@H](C(C)C)NC(=O)[C@H](CO)NC(=O)[C@H](C)NC(=O)[C@H](CCC(=O)O)NC1=O)C(=O)N[C@@H](CCCCN)C(=O)N[C@@H](CCC(N)=O)C(=O)N[C@@H](CCCCN)C(=O)N3)NC(=O)[C@H](CCCCN)NC(=O)[C@H](CCCCN)NC(=O)[C@H](CC(N)=O)NC(=O)[C@H](CCCC)NC2=O` [Compound 142] (H-P[Nle]E[Nle]RCEASVECKQKCLAAIGSIFGKC[Nle]NKKCKCYPR-OH; disulfide 6-27, 12-32, 16-34): 1.5 nM; `CCCC[C@H](NC(=O)[C@@H]1CCCN1)C(=O)N[C@@H](CCC(=O)O)C(=O)N[C@@H](CCCC)C(=O)N[C@@H](CCCNC(=N)N)C(=O)N[C@H]1CSSC[C@@H]2NC(=O)[C@H](CCCCN)NC(=O)CNC(=O)[C@H](Cc3ccccc3)NC(=O)[C@H]([C@@H](C)CC)NC(=O)[C@H](CO)NC(=O)CNC(=O)[C@H]([C@@H](C)CC)NC(=O)[C@H](C)NC(=O)[C@H](C)NC(=O)[C@H](CC(C)C)NC(=O)[C@@H]3CSSC[C@@H](C(=O)N[C@@H](Cc4ccc(O)cc4)C(=O)N4CCC[C@H]4C(=O)N[C@@H](CCCNC(=N)N)C(=O)N[C@@H](CC(C)C)C(=O)O)NC(=O)[C@H](CCCCN)NC(=O)[C@H](CSSC[C@H](NC(=O)[C@H](CCC(=O)O)NC(=O)[C@H](C(C)C)NC(=O)[C@H](CO)NC(=O)[C@H](C)NC(=O)[C@H](CO)NC1=O)C(=O)N[C@@H](CCCCN)C(=O)N[C@@H](CCC(N)=O)C(=O)N[C@@H](CCCCN)C(=O)N3)NC(=O)[C@H](CCCCN)NC(=O)[C@H](CCCCN)NC(=O)[C@H](CC(N)=O)NC(=O)[C@H](CCCC)NC2=O` [Compound 124] (H-P[Nle]E[Nle]RCSASVECKQKCLAAIGSIFGKC[Nle]NKKCKCYPRL-OH; disulfide 6-27, 12-32, 16-34): 1.47 nM.
